Here are results for six molecules from patent US20060111271A1 (priority 2004, published 2006).

Like-named read-outs stand apart in the source and are kept apart here.

One data set relates to anti-nicotine antibodies. Type of data set: binding.
For data set [1] the following is noted: five BSA digoxin immunised rabbits, cited from earlier work.
For data set [2] the following is noted: liver, cited from earlier work.
Setting [3] is: antibodies elicited by Nic-O-Su-Cholera Toxin B conjugates, relative to nicotine.

On to `CN1C(=O)C[C@@H](C(=O)O)[C@@H]1c1cccnc1` (relative stereo) [trans-4-cotininecarboxylic acid], for which the immunologic cross-reactivity in the data set on anti-nicotine antibodies (setting [3]) amounted to 0.19%. For the molecule `CN1C(=O)CC[C@H]1c1cccnc1` [cotinine], the immunologic cross-reactivity in the data set with anti-nicotine antibodies (setting [3]) stood at 1.1%. As to `C[C@H]1O[C@@H](O[C@H]2[C@@H](O)C[C@H](O[C@H]3[C@@H](O)C[C@H](O[C@H]4CC[C@@]5(C)[C@H](CC[C@@H]6[C@@H]5C[C@@H](O)[C@]5(C)[C@@H](C7=CC(=O)OC7)CC[C@]65O)C4)O[C@@H]3C)O[C@@H]2C)C[C@H](O)[C@@H]1O` [digoxin], the “mean serum concentration of digoxin” value in data set [1] (at one year) is recorded as 85 nanogram/ml; in data set [1] (initially), 8200 nanogram/ml. On to `CN1CCCC1c1cccnc1` (centres unmarked) [nicotine], for which the “nicotine transformed to nicotine N'-oxide” value in data set [2] (flavin containing monooxygenase 3) is 4-7%. The “nicotine glucuronidation, share of metabolized nicotine” value in data set [2] (uridine diphosphate-glucuronosyltransferase) is recorded as 3-5%. `O=C(O)c1cccnc1` [nicotinic acid] showed an immunologic cross-reactivity in the data set with anti-nicotine antibodies of 0.09%. With `c1cncc([C@@H]2CCCN2)c1` [nornicotine], the immunologic cross-reactivity with anti-nicotine antibodies (setting [3]) is reported as 4%.
